Test results: patent publication US10947243B2, “Heteroaryl SYK inhibitors” (Boehringer Ingelheim International GmbH, priority 2014, dated 2021)

Biological target: Recombinant human Aurora B (amino acids 1-344) (Homo sapiens (Human), UniProt Q96GD4)
Experiment: Aurora B Kinase Test (ADP Glo luminescence)
Type: biochemical
Conditions: comparison compounds, Example numbers of WO 2013/014060; read-out: IC50 in μM (AURB-Inhibition)
Protocol: The activity of the Aurora B kinase protein was determined using the ADP Glo® Luminescence Kinase test (Promega; V9103X).
Serial Dilution is done in 1:10 steps in 100% DMSO.
Then 20 μl Kinase detection mix (Detection Buffer #V913B Promega; Kinase Detection Substrate #V914B Promega) were added and incubated for 40 minutes at room temperature.
The output file of the reader is a csv file that contains the well number and measured RLU. For data evaluation and calculation, the measurement of the negative control was set as 0% ctrl and the measurement of the positive control was set as 100% ctrl. Based on this values the % value for the measurement of each substance concentration was calculated using an Assay Explorer software (Accelrys). Normally, the % ctrl values calculated are between 0% and 100% values but may also occur outside these limits in individual cases based on variability or compound characteristics. The IC50 values were calculated from the % ctrl values using Assay Explorer software. Calculation: [y=(a−d)/(1+(x/c)^b)+d], a=low value, d=high value; x=conc M; c=IC50 M; b=hill; y=% ctrl.

Chain of Recombinant human Aurora B (amino acids 1-344) (Q96GD4 whole entry, the tested form may be a part): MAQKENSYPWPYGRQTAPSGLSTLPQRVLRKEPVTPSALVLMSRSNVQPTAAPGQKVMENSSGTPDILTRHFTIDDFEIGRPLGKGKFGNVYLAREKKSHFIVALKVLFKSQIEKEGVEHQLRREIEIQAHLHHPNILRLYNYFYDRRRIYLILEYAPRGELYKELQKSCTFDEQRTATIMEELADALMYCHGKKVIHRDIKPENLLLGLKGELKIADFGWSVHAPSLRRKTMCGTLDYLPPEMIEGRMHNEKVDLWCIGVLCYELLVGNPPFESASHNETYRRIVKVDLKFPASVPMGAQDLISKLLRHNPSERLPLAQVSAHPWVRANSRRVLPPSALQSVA

IC50 [µM]	Compound
0.643	COc1cc(-c2cc3nn(C)cc3c(O[C@H](C)[C@H]3CNC(=O)C3)n2)ccc1O [Example 8, (4R)-4-[(1R)-1-[6-(4-Hydroxy-3-methoxy-phenyl)-2-methyl-pyrazolo[4,3-c]pyridin-4-yl]oxyethyl]pyrrolidin-2-one]

Same assay, conditions: read-out: AURB-inhibition IC50-value

IC50 [µM]	Compound
> 50	C[C@@H](Oc1cc(-c2ccn(C)n2)cc2nn(C)cc12)[C@H]1CNC(=O)C1 [Example 14, (4R)-4-[(1R)-1-[2-methyl-6-(1-methylpyrazol-3-yl)indazol-4-yl]oxyethyl]-pyrrolidin-2-one]
> 50	C[C@@H](Oc1nc(-c2ccc3cc(C(=O)N(C)C)n(C)c3c2)cc2nn(C)cc12)[C@H]1CNC(=O)C1 [Example 56, N,N,1-trimethyl-6-[2-methyl-4-[(1R)-1-[(3R)-5-oxopyrrol-idin-3-yl]ethoxy]pyrazolo[4,3-c]pyridin-6-yl]indole-2-carboxamide]

Biological target: FLT3 (Homo sapiens (Human), UniProt P36888)
Experiment: FLT3 Kinase Test (Z'-LYTE)
Type: biochemical
Conditions: comparison compounds, Example numbers of WO 2013/014060; read-out: IC50 in μM (FLT3-Inhibition)
Protocol: The activity of FLT3 is measured using the Z′-LYTE™ assay technology from Invitrogen (#PV3191)
The reaction is started by addition of 2.5 μl of the 4×ATP solution.
Positive controls are reaction mixtures containing no test compound; negative controls (blanks) are reaction mixtures containing no kinase. As a further control, the phosphopeptide solution is added to wells without kinase (=100% phosphorylation control).
The reaction is performed for 1 h at room temperature before 5 μl of the development solution is added. After a further incubation for 1 h at room temperature 5 μl of the stop reagent is added.
The output text file is evaluated in an “MS-Excel-VB-Makro” and “GraphPadPrism” (Version 5) (GraphPad Software Inc.) is used to calculate the results. Data for the inhibition of FLT3 are reported in M. data for the inhibition of the protease are reported in % CTL.

Chain of FLT3 (P36888 564-958): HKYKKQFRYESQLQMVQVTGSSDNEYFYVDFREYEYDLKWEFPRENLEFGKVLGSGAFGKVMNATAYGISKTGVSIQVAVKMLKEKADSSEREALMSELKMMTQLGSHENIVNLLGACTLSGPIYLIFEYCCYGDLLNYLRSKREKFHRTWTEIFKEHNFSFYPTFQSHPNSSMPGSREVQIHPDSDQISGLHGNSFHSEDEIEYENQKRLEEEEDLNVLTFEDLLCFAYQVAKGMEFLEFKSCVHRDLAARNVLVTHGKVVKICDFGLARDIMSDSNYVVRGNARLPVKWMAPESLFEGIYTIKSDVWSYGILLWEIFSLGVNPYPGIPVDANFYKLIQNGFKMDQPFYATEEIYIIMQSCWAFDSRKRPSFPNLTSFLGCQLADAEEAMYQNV

IC50 [µM]	Compound
0.369	COc1cc(-c2cc3nn(C)cc3c(O[C@H](C)[C@H]3CNC(=O)C3)n2)ccc1O [Example 8, (4R)-4-[(1R)-1-[6-(4-Hydroxy-3-methoxy-phenyl)-2-methyl-pyrazolo[4,3-c]pyridin-4-yl]oxyethyl]pyrrolidin-2-one]

Same assay, conditions: read-out: FLT3-inhibition IC50-value

IC50 [µM]	Compound
25.6	(4R)-4-[(1R)-1-[6-[1-(Difluoromethyl)imidazol-4-yl]-2-methyl-pyrazolo[4,3-c]pyridin-4-yl]oxyethyl]pyrrolidin-2-one [Example 83]

System: not listed separately
Experiment: Human Liver Microsomal Stability Test
Type: in vitro ADME
Conditions: human liver microsomes; comparison compounds, Example numbers of WO 2011/092128
Protocol: The metabolic degradation for a specific SYK-inhibitor is performed at 37° C. with pooled human liver microsomes (human liver microsomes are commercially available as “BD UltraPool™” by Corning Life Sciences, Fogostraat 12, 1060 LJ Amsterdam, The Netherlands). The final incubation volume of 100 μl per time point contains TRIS buffer pH 7.6 at RT (0.1 M), magnesium chloride (5 mM), microsomal protein (1 mg/ml) and the test compound at a final concentration of 1 μM.
Following a short preincubation period at 37° C., the reaction is initiated by addition of beta-nicotinamide adenine dinucleotide phosphate in its reduced form (NADPH, 1 mM) and terminated by transfering an aliquot into solvent after different time points. Additionally, the NADPH-independent degradation is monitored in incubations without NADPH, terminated at the last time point.
The quenched (terminated) incubations are then pelleted by centrifugation (10000 g, 5 min).
An aliquot of the supernatant is assayed by LC-MS/MS for the remaining amount of parent compound. The half-life (t½ INVITRO) is determined by the slope of the semilogarithmic plot of the concentration-time profile.
The intrinsic clearance (CL_[…]) is calculated by considering the amount of protein in the incubation: CL_[…] [μl/min/mg protein]=(Ln 2/(t½INVITRO [min]*protein content [mg/ml]))*1000
The protein content [mg/ml] was determined with the “Bicinchoninic Acid Kit” of Sigma Aldrich (commercially available).
The upscaled intrinsic Clearance (CL_UP_INT) is calcuated by considering the liver weight [g liver/kg body weight] and the microsomal recovery [mg protein/g liver]: CL_UP_INT [ml/min/kg]=0.001*CL_[…]*liver weight*microsomal recovery • with microsomal recovery=45 mg protein/g liver • with liver weight=25.7 g liver/kg body weight
The percent hepatic blood flow (% Qh) is finally calculated by considering the human liver blood flow Q [ml/min/kg]: % Qh [%]=((Q*CL_UP_INT)/(Q+CL_UP_INT)/Q)*100 • with liver blood flow (Q)=20.7 ml/min/kg.

microsomal stability Cl [% Qh]	Compound
77	COc1cc(-c2cc3ncccc3c(O[C@H](C)[C@H]3CNC(=O)C3)n2)cc(OC)c1Cl [Example 8 of WO 2011/092128, reference compound]
77	COc1cc(-c2cc3nn(C)cc3c(O[C@H](C)[C@H]3CNC(=O)C3)n2)ccc1O [Example 8, (4R)-4-[(1R)-1-[6-(4-Hydroxy-3-methoxy-phenyl)-2-methyl-pyrazolo[4,3-c]pyridin-4-yl]oxyethyl]pyrrolidin-2-one]
33	COc1cc(-c2cc3ncccc3c(O[C@H](C)[C@H]3CNC(=O)C3)n2)ccc1OC(F)(F)F [compound 4]

Same assay, conditions: human liver microsomes; comparison compounds, Example numbers of WO 2013/014060

microsomal stability Cl [% Qh]	Compound
81	COc1cc(-c2cc(O[C@H](C)[C@H]3CNC(=O)C3)c3cccnc3c2)cc(OC)c1OC [Example 2 of WO 2013/014060, reference compound]
38	Cc1nc(C)c2cc(-c3cc(O[C@H](C)[C@H]4CNC(=O)C4)c4cccnc4c3)ccc2n1 [compound 107]
41	Cc1nc2cc(-c3cc(O[C@H](C)[C@H]4CNC(=O)C4)c4cccnc4c3)ccc2[nH]1 [compound 109]

The remaining lines, values behind:

Compound	microsomal stability Cl [% Qh]
COc1cc(-c2cc3nn(C)cc3c(O[C@H](C)[C@H]3CNC(=O)C3)n2)ccc1O [Example 8, (4R)-4-[(1R)-1-[6-(4-Hydroxy-3-methoxy-phenyl)-2-methyl-pyrazolo[4,3-c]pyridin-4-yl]oxyethyl]pyrrolidin-2-one]	58
Cc1nc2ccc(-c3cc(O[C@H](C)[C@H]4CNC(=O)C4)c4cccnc4c3)cc2s1 [compound 85]	49
COc1cc(-c2cc(O[C@H](C)[C@H]3CNC(=O)C3)c3cccnc3c2)ccc1C(F)(F)F [compound 102]	54
Cc1nc2cc(-c3cc(O[C@H](C)[C@H]4CNC(=O)C4)c4cccnc4c3)ccc2n1C [compound 105]	64

Same assay, conditions: human liver microsomes; compounds of the invention (own Example numbers)

microsomal stability Cl [% Qh]	Compound
<23	C[C@@H](Oc1cc(-c2cnn(C(C)(C)C)c2)cc2nn(C)cc12)[C@H]1CNC(=O)C1 [Example 18, (4R)-4-[(1R)-1-[6-(1-tert-butylpyrazol-4-yl)-2-methyl-indazol-4-yl]oxyethyl]pyrrolidin-2-one]
<23	C[C@@H](Oc1cc(-c2ccc3c(cnn3C)c2)cc2nn(C)cc12)[C@H]1CNC(=O)C1 [Example 28, (4R)-4-[(1R)-1-[2-methyl-6-(1-methylindazol-5-yl)indazol-4-yl]oxyethyl]pyrrolidin-2-one]
<23	C[C@@H](Oc1cc(-c2ccc3c(c2)c(N)nn3C)cc2nn(C)cc12)[C@H]1CNC(=O)C1 [Example 36, (4R)-4-[(1R)-1-[6-(3-amino-1-methyl-indazol-5-yl)-2-methyl-indazol-4-yl]oxyethyl]pyrrolidin-2-one]
<23	C[C@@H](Oc1nc(-c2ccc3c(cnn3C)c2)cc2nn(C)cc12)[C@H]1CNC(=O)C1 [Example 62, (4R)-4-[(1R)-1-[2-methyl-6-(1-methylindazol-5-yl)pyrazolo[4,3-c]pyridin-4-yl]oxyethyl]pyrrolidin-2-one]
<23	C[C@@H](Oc1nc(-c2ccc3cnn(C)c3c2)cc2nn(C)cc12)[C@H]1CNC(=O)C1 [Example 72, (4R)-4-[(1R)-1-[2-methyl-6-(1-methylindazol-6-yl)pyrazolo[4,3-c]pyridin-4-yl]oxyethyl]pyrrolidin-2-one]

The remaining lines, values behind:

Compound	microsomal stability Cl [% Qh]
COc1cc(-c2cc3nn(C)cc3c(O[C@H](C)[C@H]3CNC(=O)C3)n2)ccc1O [Example 8, (4R)-4-[(1R)-1-[6-(4-Hydroxy-3-methoxy-phenyl)-2-methyl-pyrazolo[4,3-c]pyridin-4-yl]oxyethyl]pyrrolidin-2-one]	<23
COc1cc(-c2cc3nn(C)cc3c(O[C@H](C)[C@H]3CNC(=O)C3)n2)cc(OC)c1OC [Example 52, (4R)-4-[(1R)-1-[2-methyl-6-(3,4,5-trimethoxyphenyl)-pyrazolo[4,3-c]pyridin-4-yl]oxyethyl]pyrrolidin-2-one]	<23

Same assay, conditions: human liver microsomes; percent hepatic blood flow

microsomal stability Cl [% Qh]	Compound
<23	C[C@@H](Oc1cc(-c2ccc(CN3CCOCC3)cc2)cc2ncccc12)[C@H]1CNC(=O)C1 [43 of WO 2013/014060]
<23	C[C@@H](Oc1cc(-c2ccc(N3CCN(C)CC3)cc2)cc2nn(C)cc12)[C@H]1CNC(=O)C1 [Example 26, (4R)-4-[(1R)-1-[2-methyl-6-[4-(4-methylpiperazin-1-yl)phenyl]indazol-4-yl]oxyethyl]pyrrolidin-2-one]
<23	CC(C)Oc1ccc(-c2cc(O[C@H](C)[C@H]3CNC(=O)C3)c3cn(C)nc3c2)cn1 [Example 27, (4R)-4-[(1R)-1-[6-(6-isopropoxy-3-pyridyl)-2-methyl-indazol-4-yl]oxyethyl]pyrrolidin-2-one]

Second part, the compound before the results:

Compound	microsomal stability Cl [% Qh]
C[C@@H](Oc1cc(-c2ccccn2)cc2ncccc12)[C@H]1CNC(=O)C1 [6 of WO 2013/014060]	24
C[C@@H](Oc1nc(-c2ccc(N3CCOCC3)nc2)cc2ncccc12)[C@H]1CNC(=O)C1 [45 of WO 2011/092128]	53
C[C@@H](Oc1cc(-c2ccc(C(=O)N3CCN(C)CC3)cc2)cc2ncccc12)[C@H]1CNC(=O)C1 [76 of WO 2013/014060]	<23
C[C@@H](Oc1cc(-c2ccc3c(c2)CNCC3)cc2ncccc12)[C@H]1CNC(=O)C1 [101 of WO 2013/014060]	<23
C[C@@H](Oc1cc(-c2ccc(N3CCOCC3)cc2)cc2nn(C)cc12)[C@H]1CNC(=O)C1 [Example 22, (4R)-4-[(1R)-1-[2-Methyl-6-(4-morpholinophenyl)indazol-4-yl]oxyethyl]-pyrrolidin-2-one]	25
C[C@@H](Oc1nc(-c2ccc(C(F)F)nc2)cc2nn(C)cc12)[C@H]1CNC(=O)C1 [Example 51, (4R)-4-[(1R)-1-[6-[6-(difluoromethyl)-3-pyridyl]-2-methyl-pyrazolo[4,3-c]pyridin-4-yl]oxyethyl]pyrrolidin-2-one]	<23
COc1ccc(-c2cc3nn(C)cc3c(O[C@H](C)[C@H]3CNC(=O)C3)n2)cn1 [Example 59, (4R)-4-[(1R)-1-[6-(6-methoxy-3-pyridyl)-2-methyl-pyrazolo-[4,3-c]pyridin-4-yl]oxyethyl]-pyrrolidin-2-one]	<23
C[C@@H](Oc1nc(-c2ccc(N3CCN(C)CC3)cc2)cc2nn(C)cc12)[C@H]1CNC(=O)C1 [Example 67, (4R)-4-[(1R)-1-[2-methyl-6-[4-(4-methylpiperazin-1-yl)phenyl]pyrazolo[4,3-c]pyridin-4-yl]oxyethyl]-pyrrolidin-2-one]	34
